Source: patent US10722466B2, “Liposomal formulation for use in the treatment of cancer” (LES LABORATOIRES SERVIER, priority 2016, dated 2020)

Legend:
[1] = Aqueous solubility of Compound A; format: physicochemical; details: all pHs, including physiologically relevant pHs
[2] = In vitro release assay: release of Compound A from SUV to acceptor multilamellar vesicles (MLVs); format: physicochemical
Description: The aim of this experiment was to investigate the release rate of Compound A from small unilamellar vesicles (SUV; used here as a drug carrier system, see Example 3A) to large multilamellar vesicles (MLVs) consisting of egg phospholipids, and used as a lipophilic acceptor for drug released (see Shabbits J. A., Chiu G. N. and Mayer L. D. “Development of an in vitro drug release assay that accurately predicts in vivo drug retention for liposome-based delivery systems” Journal of Controlled Release 2002, 84(3), 161-170).
Multilamellar vesicles were prepared by using the Film-Hydration method. In short, egg phospholipids (Lipoid E 80 S) were weighed out and completely dissolved in organic solvent (EtOH/DCM at 4:1 v/v) to assure a homogenous mixture of all components.
Next, the organic solvent was removed using rotary evaporation (first step: 200 mbar, 50° C., 2 hours; second step: 30 mbar, 50° C., 45 minutes) to yield a homogenous lipid film. To assure complete removal of the organic solvent, the flask was flushed with nitrogen. Next, the film was rehydrated using phosphate buffered saline (PBS, pH 7.4) yielding MLVs and upon complete rehydration the MLVs were exposed to sonication for 15 minutes.
To have the MLVs resuspended in the same buffer system as the SUVs, the suspension was centrifuged for 10 minutes at 14,000 g, the supernatant (PBS) was removed, and replaced by sucrose histidine buffer. Lastly, the mixture was vortexed thoroughly to assure complete redispersion of the MLVs in the new medium before starting the release experiment.
SUVs (donor) were mixed with MLVs (acceptor) in a 25 ml Erlenmeyer flask with a stopper under stirring (500 rpm) at various ratios (1:40, 1:100, 1:200, 1:500; SUV:MLV v/v). 1 ml samples were taken at different time points and immediately centrifuged (14′000 rpm, 10 minutes) to separate the MLVs from SUVs for further processing. FIG. 3 herein is a schematic depicting the principle of the MLV-based release assay.
Next, the MLV portion was removed via suction and 50 μl of the SUV portion were mixed with 450 μl of ACN:H2O for HPLC sample preparation. The sample was then centrifuged (14′000 rpm, 10 minutes), the supernatant was filtered using a 0.22 μm filter and injected into the HPLC for analysis.
A high performance liquid chromatography (HPLC) system with UV detection including the following equipment settings and solvent systems were employed:
Compound A release was measured using MLVs as the acceptor compartment. Here, Compound A-loaded SUVs (7.5 mg/ml) were added to these MLVs at different ratios (v/v).
Note: For all MLV release experiments, the maximum concentration (maxC=100%) was obtained by diluting the 7.5 mg/ml loaded SUVs 1 to 40, 1 to 100, 1 to 200, or 1 to 500 (v/v) in Sucrose Histidine buffer instead of MLVs.

COc1ccccc1-c1nccc(COc2ccccc2CC(Oc2ncnc3sc(-c4ccc(F)cc4)c(-c4ccc(OCCN5CCN(C)CC5)c(Cl)c4C)c23)C(=O)O)n1 [Compound A, (2R)-2-{[(5Sa)-5-{3-chloro-2-methyl-4-[2-(4-methylpiperazin-1-yl)ethoxy]phenyl}-6-(4-fluorophenyl)thieno[2,3-d]pyrimidin-4-yl]oxy}-3-(2-{[2-(2-methoxyphenyl)pyrimidin-4-yl]methoxy}phenyl)propanoic acid]
Aqueous solubility [1]: limited aqueous solubility across all pHs
Initial amount of Compound A still detectable in the SUV portion ([2]; SUV:MLV 1 to 40 (v/v), after 2 minutes, 7.5 mg/ml loaded SUVs): about 44%
Compound A released or transferred to the acceptor MLV ([2]; SUV:MLV 1 to 40 (v/v), t=2 minutes): ~60%
Compound A released to the acceptor MLV ([2]; SUV:MLV 1 to 100 (v/v), t=2 minutes): ~70%
Compound A released to the acceptor MLV ([2]; SUV:MLV 1 to 200 (v/v), t=2 minutes): ~80%
Compound A released to the acceptor MLV ([2]; SUV:MLV 1 to 500 (v/v), t=2 minutes): ~90%
Drug substance released (maximum over the ratios tested) ([2]; after only 2 minutes): up to 90%
